Each structure is given as a SMILES string.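 Dose response: 5 concentrations. Exposure: 48 h. Format: 96-well plates. Endpoint: linear interpolation; highest concentration if not reached. The concentration for full growth arrest is given as TGI.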

Some test systems named below: OVCAR-3 ovarian; UACC-62 melanoma; MDA-MB-435; A549 NSCLC; 786-0 renal; UO-31 renal; SK-OV-3 ovarian; OVCAR-5 ovarian; U251 CNS; NCI/ADR-RES ovarian; EKVX NSCLC.
Test in all cases: DTP human tumour cell line panel, 48 h

For the compound `CCCC1(N2C(=O)c3ccc4c5c(ccc(c35)C2=O)N(C2(CCC)CCCCC2)C4=O)CCCCC1`, the TGI in the test on OVCAR-3 ovarian, in the test on UACC-62 melanoma, in the test on MDA-MB-435, in the test with A549 NSCLC, with 786-0 renal and with UO-31 renal was greater than 100 µM each time. The TGI in the test with SK-OV-3 ovarian, with OVCAR-5 ovarian, with U251 CNS and with NCI/ADR-RES ovarian was greater than 100 µM each time.

`CC(NNC(=S)N1CCCC1)c1cccnn1` (stereo unspecified): the TGI (as a rule, the concentration giving total growth inhibition) in the test on OVCAR-3 ovarian is greater than 100 µM; in the test on UACC-62 melanoma it was 7.45 µM; in the test on MDA-MB-435 it was greater than 100 µM; in the test with 786-0 renal, greater than 100 µM; in the test on UO-31 renal, 3.08 µM; with SK-OV-3 ovarian it was greater than 65.5 µM. For the same compound, the TGI in the test on OVCAR-5 ovarian is 8.71 µM; in the test on U251 CNS it was greater than 100 µM; in the test with NCI/ADR-RES ovarian it was greater than 62.9 µM.

In the case of `Cc1cc(N(CCC#N)CCC#N)ccc1/C=C(\N=[N+]=[N-])C(=O)NC(=O)COc1ccccc1`, the TGI with OVCAR-3 ovarian, in the test on UACC-62 melanoma, in the test with A549 NSCLC, with EKVX NSCLC, in the test on 786-0 renal and in the test on UO-31 renal was greater than 100 µM each time. The TGI with SK-OV-3 ovarian, in the test on OVCAR-5 ovarian and in the test on U251 CNS was greater than 100 µM in each case.

For `Cc1cc2nc3c(C#N)c4c(c(Cl)n3c2cc1C)CCC4`, the total growth inhibition concentration (TGI) in the test on OVCAR-3 ovarian is 49.7 µM; in the test on MDA-MB-435, 42.5 µM; in the test on EKVX NSCLC, greater than 100 µM; in the test with 786-0 renal, 29.5 µM; with SK-OV-3 ovarian, greater than 100 µM; with OVCAR-5 ovarian, 77.8 µM. Moreover, the TGI in the test on U251 CNS worked out at 30.4 µM; in the test with NCI/ADR-RES ovarian it was 46.2 µM.

For `CCOC(=O)C(C(=O)OCC)S(C)(=O)=O`, the total growth inhibition concentration (TGI) in the test with OVCAR-3 ovarian, in the test with UACC-62 melanoma, in the test with A549 NSCLC, in the test on EKVX NSCLC, in the test with 786-0 renal and in the test on UO-31 renal was greater than 100 µM each time. The TGI in the test with SK-OV-3 ovarian, in the test on OVCAR-5 ovarian and with U251 CNS was greater than 100 µM each time.

As to `CSc1c(S(C)=O)c2ccccc2n1C` (stereo unspecified), the concentration for total growth inhibition (TGI) in the test on OVCAR-3 ovarian, in the test with UACC-62 melanoma, in the test on MDA-MB-435, in the test with A549 NSCLC, in the test on EKVX NSCLC and in the test on 786-0 renal was greater than 100 µM each time. Besides, the concentration for total growth inhibition (TGI) in the test on UO-31 renal, with SK-OV-3 ovarian, with OVCAR-5 ovarian and in the test with NCI/ADR-RES ovarian was greater than 100 µM in each case.

`CC(=O)Oc1ccc(C)c2c1[C@H]1CC[C@]3(C)[C@@H](OC(C)=O)CC[C@H]3[C@@H]1CC2`: the TGI with OVCAR-3 ovarian was found to be 33.1 µM; in the test with UACC-62 melanoma, 34.5 µM; in the test on MDA-MB-435, 32.9 µM; in the test on A549 NSCLC, 50.8 µM; in the test on EKVX NSCLC, 30.9 µM; in the test with 786-0 renal, 39.4 µM. The TGI with UO-31 renal is greater than 100 µM; in the test on OVCAR-5 ovarian, greater than 100 µM; in the test with U251 CNS it was 29.1 µM; in the test on NCI/ADR-RES ovarian, 40.4 µM.

Turning to `O=C(Cn1c2ccc(Br)cc2c2nc3ccccc3nc21)N1CCOCC1`, the TGI in the test on OVCAR-3 ovarian, with UACC-62 melanoma, in the test with MDA-MB-435, in the test with A549 NSCLC, in the test with 786-0 renal and in the test on UO-31 renal was greater than 100 µM throughout. Further, the concentration for total growth inhibition (TGI) in the test with SK-OV-3 ovarian, with OVCAR-5 ovarian, in the test on U251 CNS and in the test with NCI/ADR-RES ovarian was greater than 100 µM each time.

On to `N#Cc1c2c(c(Nc3cccc(C(F)(F)F)c3)n3c1nc1ccccc13)CCCC2`, for which the concentration for total growth inhibition (TGI) is greater than 100 µM in the test on OVCAR-3 ovarian; greater than 100 µM in the test with MDA-MB-435; 62.4 µM in the test with EKVX NSCLC; 27.9 µM in the test with 786-0 renal; 48 µM with SK-OV-3 ovarian; 46.6 µM with OVCAR-5 ovarian. Further, the TGI in the test on U251 CNS was 23.7 µM; with NCI/ADR-RES ovarian it was 51.8 µM.

`COc1cc2cnc3c4cc(O)ccc4ccc3c2cc1OC`: the total growth inhibition concentration (TGI) with OVCAR-3 ovarian, in the test on UACC-62 melanoma, in the test on A549 NSCLC, with EKVX NSCLC, with 786-0 renal and in the test on UO-31 renal was greater than 100 µM throughout. Besides, the TGI with SK-OV-3 ovarian, with OVCAR-5 ovarian and with U251 CNS was greater than 100 µM in each case.

Take `O=S1(=O)OCCOS(=O)(=O)C1(Br)Br`: the concentration for total growth inhibition (TGI) in the test on OVCAR-3 ovarian, with UACC-62 melanoma, with A549 NSCLC, in the test with EKVX NSCLC, in the test on 786-0 renal and with UO-31 renal was greater than 100 µM throughout. The total growth inhibition concentration (TGI) in the test with SK-OV-3 ovarian is greater than 100 µM.

For `c1cc2cc(Cc3ccc4[nH]ccc4c3)ccc2[nH]1`, the TGI in the test on OVCAR-3 ovarian was found to be 32.9 µM; in the test with UACC-62 melanoma it was 38.9 µM; with MDA-MB-435, 45.7 µM; in the test with A549 NSCLC it was 34.8 µM; with EKVX NSCLC it was 41.7 µM; in the test with 786-0 renal, 33.6 µM. The concentration for total growth inhibition (TGI) in the test on UO-31 renal turned out to be 34.6 µM; in the test on SK-OV-3 ovarian it was 47.8 µM; in the test with OVCAR-5 ovarian it was 39.7 µM; in the test with U251 CNS it was 38.5 µM.

Regarding `O=C(O)c1ccc(Nc2nc3ccc(C(F)(F)F)cc3nc2-c2ccccc2)cc1`, the concentration for total growth inhibition (TGI) in the test with OVCAR-3 ovarian is 72.6 µM; in the test with UACC-62 melanoma, 35.8 µM; in the test on MDA-MB-435, greater than 100 µM; with A549 NSCLC, greater than 100 µM; in the test on EKVX NSCLC, greater than 100 µM; in the test on 786-0 renal it was greater than 100 µM. Further, the TGI in the test with UO-31 renal is 55.1 µM; in the test with OVCAR-5 ovarian it was greater than 100 µM; with U251 CNS it was greater than 100 µM; in the test on NCI/ADR-RES ovarian, 96.2 µM.

Regarding `N#C/C(=C\c1ccccc1F)C(=O)c1ccccc1`, the concentration for total growth inhibition (TGI) in the test on OVCAR-3 ovarian, with UACC-62 melanoma, in the test with A549 NSCLC, in the test on EKVX NSCLC, with 786-0 renal and in the test with UO-31 renal was greater than 100 µM each time. For the same compound, the TGI in the test with SK-OV-3 ovarian, with OVCAR-5 ovarian and in the test on U251 CNS was greater than 100 µM each time.

As for `Cc1nc2c(n1Cc1ccc(F)cc1)C(=O)c1ccccc1C2=O`, the TGI with OVCAR-3 ovarian is 48.6 µM; in the test on UACC-62 melanoma, 32.3 µM; in the test on A549 NSCLC it was greater than 100 µM; with EKVX NSCLC, greater than 100 µM; in the test with 786-0 renal, greater than 100 µM; in the test on UO-31 renal it was greater than 100 µM. Moreover, the TGI with SK-OV-3 ovarian and with U251 CNS was greater than 100 µM in each case.
